The assay has as its system T-47D. Description: NCI60 anticancer drug screen. Type of assay: cell-based, human. The settings on record: T-47D (Breast Cancer), 10 μM, 48 h. An excerpt:
The aminocaproate-substituted corrole Complex 3 was submitted to NCI for cytotoxic screening at a single high dose (10−5M) in a panel of 60 human tumor cell lines (NCI60). Details of the cytotoxicity assessment in the NCI anticancer drug screen have been described previously, in Monks A, et al. (1991) Feasibility of a high-flux anticancer drug screen using a diverse panel of cultured human tumor cell lines. J Natl Cancer Inst 83(11):757-766, this reference being incorporated by reference for these teachings.
In view of the promising results observed for carboxylated corroles, Complex 3 was selected for expanded cell screening to uncover additional susceptible cancer cell lines. The cytotoxic activity of Complex 3 was tested at a dose of 10^−5 M against 60 human cancer cell lines representing nine distinct tumor types in the anticancer screening program of the National Cancer Institute (NCI). The in vitro parameters for cytotoxicity, growth percent, and lethality were obtained for Complex 3 and reported as a mean graph of the percent growth of treated cells (FIG. 7). Bars in the mean graph depict the deviation of individual tumor cell lines from the overall mean value for all cells tested. Bars that project to the right of the mean represent cell lines that are more sensitive to Complex 3, whereas cell lines less sensitive to the compound display bars that project to the left.
The numerical values associated with this assay represent growth relative to the no-drug control and the numbers of cells at time 0 (FIG. 7). This allows detection of both growth inhibition (values between 0 and 100) and lethality (values less than 0). For example, a value of 100 signifies no growth inhibition, 40 means 60% growth inhibition, 0 means no net growth over the course of the experiment, −40 means 40% lethality, and −100 indicates all cells are dead. […] Growth inhibitions reflect cytostatic activity of the compound as previously shown for Complex 2. In contrast, cell lethality is only evident in melanoma cells, specifically the LOX IMVI and SK-MEL-28 cell lines.

Regarding `O=C(O)CCCCCNc1c(F)c(F)c(C2=C3C=CC4=[N+]3[Ga-]35[n]6c2ccc6C(c2c(F)c(F)c(F)c(F)c2F)=c2ccc([n]23)=C(c2c(F)c(F)c(F)c(F)c2F)c2ccc4[n]25)c(F)c1F` (stereo not shown) [Complex 3], the “Growth inhibition, %” value was found to be 45.9%.

Values taken from patent publication US10035806B2, “Derivatized corroles and metallocorroles and their use as imaging and therapeutic agents” (CALIFORNIA INSTITUTE OF TECHNOLOGY, priority 2015, dated 2018).
